Measurements reported in PubChem BioAssay (NCI).
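GI50 is the concentration that inhibits growth by half. TGI marks complete inhibition of growth.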

Key:
Experiment in all cases: DTP human tumour cell line panel, 384-well format
SK-MEL-28 melanoma = system: SK-MEL-28 melanoma
A498 renal = system: A498 renal
SF-539 CNS = system: SF-539 CNS
HT29 colon = system: HT29 colon
HS 578T breast = system: HS 578T breast
NCI-H460 NSCLC = system: NCI-H460 NSCLC
MCF7 breast = system: MCF7 breast
U251 glioblastoma = system: U251 glioblastoma
IGROV1 ovarian = system: IGROV1 ovarian
BT-549 breast = system: BT-549 breast
HCT-15 colon = system: HCT-15 colon
RPMI-8226 leukemia = system: RPMI-8226 leukemia
K-562 leukemia = system: K-562 leukemia
PC-3 prostate = system: PC-3 prostate
NCI-H522 lung = system: NCI-H522 lung
SK-OV-3 ovarian = system: SK-OV-3 ovarian
EKVX NSCLC = system: EKVX NSCLC
SW-620 colon = system: SW-620 colon
NCI-H226 lung = system: NCI-H226 lung
HCT-116 colon = system: HCT-116 colon
OVCAR-3 ovarian = system: OVCAR-3 ovarian
HOP-62 NSCLC = system: HOP-62 NSCLC
T-47D breast = system: T-47D breast
SK-MEL-5 melanoma = system: SK-MEL-5 melanoma
SR leukemia = system: SR leukemia
CAKI-1 renal = system: CAKI-1 renal
HL-60(TB) leukemia = system: HL-60(TB) leukemia
SF-268 CNS = system: SF-268 CNS
MALME-3M melanoma = system: MALME-3M melanoma
SF-295 CNS = system: SF-295 CNS
ACHN renal = system: ACHN renal
MDA-MB-435 melanoma = system: MDA-MB-435 melanoma
SNB-75 CNS = system: SNB-75 CNS
COLO 205 colon = system: COLO 205 colon
MDA-MB-468 breast = system: MDA-MB-468 breast
RXF 393 renal = system: RXF 393 renal
LOX IMVI melanoma = system: LOX IMVI melanoma
A549 NSCLC = system: A549 NSCLC
CCRF-CEM leukemia = system: CCRF-CEM leukemia
DU-145 prostate = system: DU-145 prostate
MDA-MB-231 breast = system: MDA-MB-231 breast
MOLT-4 leukemia = system: MOLT-4 leukemia
UACC-257 melanoma = system: UACC-257 melanoma
TK-10 renal = system: TK-10 renal
SK-MEL-2 melanoma = system: SK-MEL-2 melanoma
SN12C renal = system: SN12C renal
UACC-62 melanoma = system: UACC-62 melanoma
M14 melanoma = system: M14 melanoma
NCI-H23 lung = system: NCI-H23 lung
NCI/ADR-RES ovarian = system: NCI/ADR-RES ovarian
SNB-19 CNS = system: SNB-19 CNS
KM12 colon = system: KM12 colon
OVCAR-4 ovarian = system: OVCAR-4 ovarian
NCI-H322M lung = system: NCI-H322M lung

Cc1noc2c1-c1ccccc1C(c1ccc(Cl)cc1)=N[C@H]2CC(N)=O
GI50 (SK-MEL-28 melanoma): 21.4 µM
TGI (SK-MEL-28 melanoma): > 100 µM
GI50 (A498 renal): 1.41 µM
TGI (A498 renal): 94.4 µM
GI50 (SF-539 CNS): 13 µM
TGI (SF-539 CNS): > 100 µM
GI50 (HT29 colon): 0.508 µM
TGI (HT29 colon): 59.2 µM
GI50 (HS 578T breast): 0.292 µM
TGI (HS 578T breast): 28.3 µM
GI50 (NCI-H460 NSCLC): 19 µM
TGI (NCI-H460 NSCLC): > 100 µM
GI50 (MCF7 breast): 0.312 µM
TGI (MCF7 breast): 17 µM
GI50 (U251 glioblastoma): 10.2 µM
TGI (U251 glioblastoma): > 100 µM
GI50 (IGROV1 ovarian): 0.564 µM
TGI (IGROV1 ovarian): 30.1 µM
GI50 (BT-549 breast): 0.292 µM
TGI (BT-549 breast): 18.7 µM
GI50 (HCT-15 colon): 0.442 µM
TGI (HCT-15 colon): 19.5 µM
GI50 (RPMI-8226 leukemia): 0.298 µM
TGI (RPMI-8226 leukemia): 12.5 µM
GI50 (K-562 leukemia): 0.697 µM
TGI (K-562 leukemia): 28 µM
GI50 (PC-3 prostate): 0.723 µM
TGI (PC-3 prostate): > 100 µM
GI50 (NCI-H522 lung): 0.04 µM
TGI (NCI-H522 lung): 0.455 µM
GI50 (SK-OV-3 ovarian): 0.491 µM
TGI (SK-OV-3 ovarian): 38.8 µM
GI50 (EKVX NSCLC): 36.2 µM
TGI (EKVX NSCLC): > 100 µM
GI50 (SW-620 colon): 21.8 µM
TGI (SW-620 colon): 71.7 µM
GI50 (NCI-H226 lung): 12.2 µM
TGI (NCI-H226 lung): 44 µM
GI50 (HCT-116 colon): 13.5 µM
TGI (HCT-116 colon): 54.7 µM
GI50 (OVCAR-3 ovarian): 0.812 µM
TGI (OVCAR-3 ovarian): 29.8 µM
GI50 (HOP-62 NSCLC): 0.4 µM
TGI (HOP-62 NSCLC): 34.1 µM
GI50 (T-47D breast): 6.48 µM
TGI (T-47D breast): 82 µM
GI50 (SK-MEL-5 melanoma): 1.03 µM
TGI (SK-MEL-5 melanoma): 21.3 µM
GI50 (SR leukemia): 0.0478 µM
TGI (SR leukemia): 1.43 µM
GI50 (CAKI-1 renal): 0.227 µM
TGI (CAKI-1 renal): 54.3 µM
GI50 (HL-60(TB) leukemia): 0.102 µM
TGI (HL-60(TB) leukemia): 0.229 µM
GI50 (SF-268 CNS): 18.1 µM
TGI (SF-268 CNS): 67.7 µM
GI50 (MALME-3M melanoma): 16.4 µM
TGI (MALME-3M melanoma): 61.4 µM
GI50 (SF-295 CNS): 18.8 µM
TGI (SF-295 CNS): > 100 µM
GI50 (ACHN renal): 11.5 µM
TGI (ACHN renal): > 100 µM
GI50 (MDA-MB-435 melanoma): 6.55 µM
TGI (MDA-MB-435 melanoma): 43.5 µM
GI50 (SNB-75 CNS): 15.7 µM
TGI (SNB-75 CNS): > 100 µM
GI50 (COLO 205 colon): 0.78 µM
TGI (COLO 205 colon): 29 µM
GI50 (MDA-MB-468 breast): 0.685 µM
TGI (MDA-MB-468 breast): 23 µM
GI50 (RXF 393 renal): 11.6 µM
TGI (RXF 393 renal): 34.2 µM
GI50 (LOX IMVI melanoma): 0.473 µM
TGI (LOX IMVI melanoma): 18.1 µM
GI50 (A549 NSCLC): 10.3 µM
TGI (A549 NSCLC): > 100 µM
GI50 (CCRF-CEM leukemia): 0.629 µM
TGI (CCRF-CEM leukemia): 22.9 µM
GI50 (DU-145 prostate): 23.6 µM
TGI (DU-145 prostate): > 100 µM
GI50 (MDA-MB-231 breast): 0.612 µM
TGI (MDA-MB-231 breast): 94.4 µM
GI50 (MOLT-4 leukemia): 0.549 µM
TGI (MOLT-4 leukemia): 15.8 µM
GI50 (UACC-257 melanoma): 16.4 µM
TGI (UACC-257 melanoma): > 100 µM
GI50 (TK-10 renal): 0.504 µM
TGI (TK-10 renal): 34.3 µM
GI50 (SK-MEL-2 melanoma): 34.2 µM
TGI (SK-MEL-2 melanoma): 53.2 µM
GI50 (SN12C renal): 24.2 µM
TGI (SN12C renal): > 100 µM
GI50 (UACC-62 melanoma): 0.268 µM
TGI (UACC-62 melanoma): 42.1 µM
GI50 (M14 melanoma): 13.6 µM
TGI (M14 melanoma): > 100 µM
GI50 (NCI-H23 lung): 1.14 µM
TGI (NCI-H23 lung): 26.8 µM
GI50 (NCI/ADR-RES ovarian): 0.639 µM
TGI (NCI/ADR-RES ovarian): 20.4 µM
GI50 (SNB-19 CNS): 4.91 µM
TGI (SNB-19 CNS): > 100 µM
GI50 (KM12 colon): 6.93 µM
TGI (KM12 colon): 44.3 µM
GI50 (OVCAR-4 ovarian): 0.367 µM
TGI (OVCAR-4 ovarian): 3.29 µM
GI50 (NCI-H322M lung): 3.01 µM
TGI (NCI-H322M lung): > 100 µM
